# Experimental data: patent publication US9309225B2, “N-((1-benzyl-1H-1,2,3-triazol-4-yl)methyl)arylamide compounds as potential anticancer agents and a process for the preparation thereof” (COUNCIL OF SCIENTIFIC & INDUSTRIAL RESEARCH, priority 2013, dated 2016)
# Experiments:
# NCI-H460 = test: NCI sixty human tumor cell line screen, Non-small-cell-lung panel; assay type: cell-based; conditions: NCI protocol
# Method: (§1) The in vitro anticancer activity studies for these N-((1-benzyl-1H-1,2,3-triazol-4-yl)methyl) arylamide analogues were carried out at the National Cancer Institute, USA.
# (§2) The N-((1-benzyl-1H-1,2,3-triazol-4-yl)methyl)arylamide analogues have been tested at NCI, USA, against sixty human tumor cell lines derived from nine cancer types (leukemia, non-small cell lung cancer, colon cancer, CNS cancer, melanoma cancer, ovarian cancer, renal cancer, prostate cancer and breast cancer). For these compounds results are expressed as growth inhibition (GI50) values as per NCI protocol.
# NCI-H226 = test: as above; assay type: cell-based; conditions: NCI protocol
# Method: as §1, §2
# HOP-62 = test: as above; assay type: cell-based; conditions: HOP-62, Non-small-cell-lung, NCI protocol
# Method: as §1, §2
# EKVX = test: as above; assay type: cell-based; conditions: NCI protocol
# Method: as §1, §2
# NCI-H522 = test: as above; assay type: cell-based; conditions: NCI protocol
# Method: as §1, §2
# A549/ATCC = test: as above; assay type: cell-based; conditions: NCI protocol
# Method: as §1, §2
# M14 = test: NCI sixty human tumor cell line screen, Melanoma panel; assay type: cell-based; conditions: NCI protocol
# Method: as §1, §2
# UACC-62 = test: as above; assay type: cell-based; conditions: UACC-62, Melanoma, NCI protocol
# Method: as §1, §2
# LOX IMVI = test: as above; assay type: cell-based; conditions: NCI protocol
# Method: as §1, §2
# SK-MEL-28 = test: as above; assay type: cell-based; conditions: SK-MEL-28, Melanoma, NCI protocol
# Method: as §1, §2
# SK-MEL-2 = test: as above; assay type: cell-based; conditions: SK-MEL-2, Melanoma, NCI protocol
# Method: as §1, §2
# SK-MEL-5 = test: as above; assay type: cell-based; conditions: SK-MEL-5, Melanoma, NCI protocol
# Method: as §1, §2
# MDA-MB-435 = test: as above; assay type: cell-based; conditions: MDA-MB-435, Melanoma, NCI protocol
# Method: as §1, §2
# SK-OV-3 = test: NCI sixty human tumor cell line screen, Ovarian panel; assay type: cell-based; conditions: SK-OV-3, Ovarian, NCI protocol
# Method: as §1, §2
# OVCAR-4 = test: as above; assay type: cell-based; conditions: OVCAR-4, Ovarian, NCI protocol
# Method: as §1, §2
# NCI/ADR-RES = test: as above; assay type: cell-based; conditions: NCI protocol
# Method: as §1, §2
# OVCAR-8 = test: as above; assay type: cell-based; conditions: OVCAR-8, Ovarian, NCI protocol
# Method: as §1, §2
# OVCAR-3 = test: as above; assay type: cell-based; conditions: OVCAR-3, Ovarian, NCI protocol
# Method: as §1, §2
# MDA-MB-468 = test: NCI sixty human tumor cell line screen, Breast panel; assay type: cell-based; conditions: MDA-MB-468, Breast, NCI protocol
# Method: as §1, §2
# BT-549 = test: as above; assay type: cell-based; conditions: BT-549, Breast, NCI protocol
# Method: as §1, §2
# MDA-MB-31/ATCC = test: as above; assay type: cell-based; conditions: NCI protocol
# Method: as §1, §2
# T-47D = test: as above; assay type: cell-based; conditions: T47D, NCI protocol
# Method: as §1, §2
# PC-3 = test: NCI sixty human tumor cell line screen, Prostate panel; assay type: cell-based; conditions: PC-3, Prostate, NCI protocol
# Method: as §1, §2
# DU-145 = test: as above; assay type: cell-based; conditions: DU-145, Prostate, NCI protocol
# Method: as §1, §2
# SF-539 = test: NCI sixty human tumor cell line screen, CNS panel; assay type: cell-based; conditions: SF-539, CNS, NCI protocol
# Method: as §1, §2
# SF-268 = test: NCI sixty human tumor cell line screen, CNS panel; assay type: cell-based; conditions: SF-268, CNS, NCI protocol
# Method: as §1, §2
# SNB-75 = test: NCI sixty human tumor cell line screen, CNS panel; assay type: cell-based; conditions: SNB-75, CNS, NCI protocol
# Method: as §1, §2
# U251 = test: NCI sixty human tumor cell line screen, CNS panel; assay type: cell-based; conditions: U-251, NCI protocol
# Method: as §1, §2
# SF-295 = test: NCI sixty human tumor cell line screen, CNS panel; assay type: cell-based; conditions: SF-295, CNS, NCI protocol
# Method: as §1, §2
# SNB-19 = test: NCI sixty human tumor cell line screen, CNS panel; assay type: cell-based; conditions: SNB-19, CNS, NCI protocol
# Method: as §1, §2
# TK-10 = test: NCI sixty human tumor cell line screen, Renal panel; assay type: cell-based; conditions: TK-10, Renal, NCI protocol
# Method: as §1, §2
# ACHN = test: as above; assay type: cell-based; conditions: NCI protocol
# Method: as §1, §2
# 786-0 = test: as above; assay type: cell-based; conditions: 786-0, Renal, NCI protocol
# Method: as §1, §2
# RXF 393 = test: as above; assay type: cell-based; conditions: RXF 393, Renal, NCI protocol
# Method: as §1, §2
# CAKI-1 = test: as above; assay type: cell-based; conditions: CAKI-1, Renal, NCI protocol
# Method: as §1, §2
# SN12C = test: as above; assay type: cell-based; conditions: NCI protocol
# Method: as §1, §2
# UO-31 = test: as above; assay type: cell-based; conditions: UO-31, Renal, NCI protocol
# Method: as §1, §2
# A498 = test: as above; assay type: cell-based; conditions: NCI protocol
# Method: as §1, §2
# COLO 205 = test: NCI sixty human tumor cell line screen, Colon panel; assay type: cell-based; conditions: COLO 205, Colon, NCI protocol
# Method: as §1, §2
# SW-620 = test: as above; assay type: cell-based; conditions: SW-620, Colon, NCI protocol
# Method: as §1, §2
# HCT-116 = test: as above; assay type: cell-based; conditions: HCT-116, Colon, NCI protocol
# Method: as §1, §2
# KM12 = test: as above; assay type: cell-based; conditions: NCI protocol
# Method: as §1, §2
# HT29 = test: as above; assay type: cell-based; conditions: HT-29, NCI protocol
# Method: as §1, §2
smiles,measurement,setting,value
"COc1ccc(Nc2ncccc2C(=O)NCc2cn(Cc3cccc(Oc4ccccc4)c3)nn2)cc1 [Compound 1e, 2-(4-Methoxyphenylamino)-N-((1-(3-phenoxybenzyl)-1H-1,2,3-triazol-4-yl)methyl) nicotinamide]",GI50,NCI-H460,3.52 µM
same,GI50,NCI-H226,3.92 µM
same,GI50,HOP-62,5.07 µM
same,GI50,EKVX,4.16 µM
same,GI50,NCI-H522,2.13 µM
same,GI50,A549/ATCC,3.44 µM
same,GI50,M14,3.15 µM
same,GI50,UACC-62,3.13 µM
same,GI50,LOX IMVI,3.6 µM
same,GI50,SK-MEL-28,3.88 µM
same,GI50,SK-MEL-2,3.66 µM
same,GI50,SK-MEL-5,2.9 µM
same,GI50,MDA-MB-435,1.71 µM
same,GI50,SK-OV-3,4.33 µM
same,GI50,OVCAR-4,5.42 µM
same,GI50,NCI/ADR-RES,3.21 µM
same,GI50,OVCAR-8,5.96 µM
same,GI50,OVCAR-3,3.69 µM
same,GI50,MDA-MB-468,2.42 µM
same,GI50,BT-549,7.16 µM
same,GI50,MDA-MB-31/ATCC,5.35 µM
same,GI50,T-47D,4.68 µM
same,GI50,PC-3,4.74 µM
same,GI50,DU-145,1.05 µM
same,melting point,,95 to 98 °C
same,GI50,SF-539,2.79 µM
same,GI50,SF-268,4.59 µM
same,GI50,SNB-75,3.09 µM
same,GI50,U251,3.91 µM
same,GI50,SF-295,2.94 µM
same,GI50,SNB-19,3.55 µM
same,GI50,TK-10,5.16 µM
same,GI50,ACHN,6.9 µM
same,GI50,786-0,6.73 µM
same,GI50,RXF 393,3.77 µM
same,GI50,CAKI-1,6.3 µM
same,GI50,SN12C,7.41 µM
same,GI50,UO-31,5.25 µM
same,GI50,A498,4.18 µM
same,GI50,COLO 205,2.86 µM
same,GI50,SW-620,3.86 µM
same,GI50,HCT-116,4.17 µM
same,GI50,KM12,3.43 µM
same,GI50,HT29,3.66 µM
"O=C(NCc1cn(Cc2cccc(Oc3ccccc3)c2)nn1)c1cccnc1NCc1ccc(Cl)cc1 [Compound 1k, 2-(4-Chlorobenzylamino)-N-((1-(3-phenoxybenzyl)-1H-1,2,3-triazol-4-yl)methyl) nicotinamide]",GI50,NCI-H460,2.85 µM
same,GI50,NCI-H226,3.66 µM
same,GI50,HOP-62,5.69 µM
same,GI50,EKVX,3.65 µM
same,GI50,NCI-H522,2.18 µM
same,GI50,A549/ATCC,3.21 µM
same,GI50,M14,2.49 µM
same,GI50,UACC-62,2.08 µM
same,GI50,LOX IMVI,3.9 µM
same,GI50,SK-MEL-28,2.95 µM
same,GI50,SK-MEL-2,4.44 µM
same,GI50,SK-MEL-5,2.53 µM
same,GI50,MDA-MB-435,2.33 µM
same,GI50,SK-OV-3,3.32 µM
same,GI50,OVCAR-4,3.37 µM
same,GI50,NCI/ADR-RES,2.86 µM
same,GI50,OVCAR-8,3.63 µM
same,GI50,OVCAR-3,3.48 µM
same,GI50,MDA-MB-468,3.44 µM
same,GI50,BT-549,2.72 µM
same,GI50,MDA-MB-31/ATCC,2.29 µM
same,GI50,T-47D,3.2 µM
same,GI50,PC-3,2.96 µM
same,GI50,DU-145,4 µM
same,melting point,,209 to 211 °C
same,GI50,SF-539,2.24 µM
same,GI50,SF-268,4.82 µM
same,GI50,SNB-75,2.02 µM
same,GI50,U251,2.66 µM
same,GI50,SF-295,2.8 µM
same,GI50,SNB-19,3.91 µM
same,GI50,TK-10,3.7 µM
same,GI50,ACHN,4.03 µM
same,GI50,RXF 393,2.19 µM
same,GI50,CAKI-1,4.36 µM
same,GI50,SN12C,3.44 µM
same,GI50,UO-31,3 µM
same,GI50,A498,2.12 µM
same,GI50,COLO 205,2.18 µM
same,GI50,SW-620,4.04 µM
same,GI50,HCT-116,3.18 µM
same,GI50,KM12,3.62 µM
same,GI50,HT29,2.96 µM
